Experimental data from patent publication US20230348401A1, “Inhibitors of Glucose-6-phosphate Dehydrogenase and Uses Thereof” (The Trustees of Princeton University, priority 2020, published 2023).

Test system: mouse CD8+ and CD4+ T cells
Assay: Metabolites and 1-2H-glucose tracing in active T cells
Assay type: cell-based
Experimental: Cells were cultured in complete RPMI media (RPMI 1640 supplemented with 10% FBS, 100 U/ml penicillin, 100 µg/ml streptomycin, and 50 µM 2-mercaptoethanol). Naïve T cells were either rested in complete RPMI media supplemented with recombinant IL-7 (50U/mL) or stimulated for 48 hours with plate-bound anti-CD3 (10 µg/ml) and anti-CD28 (5 µg/ml) in complete RPMI media supplemented with 100 µM alanine and recombinant IL-2 (100 U/mL). Activated T cells were maintained in complete RPMI media supplemented with recombinant IL-2 (100 U/mL). All experiments on “active” T cells were performed at day 4-5 post-activation
For all experiments involving stable isotope tracers (e.g., 1-^2H-glucose), the isotope tracer nutrient was substituted for unlabeled nutrient at the same concentration normally found in the base media for a given cell type (e.g., DMEM for HCT116, RPMI for T cells, etc.). In addition, dialyzed FBS was used as a supplement in place of FBS.
For suspension cells (including T cells and red blood cells), 2×10^6 cells were seeded in 1 mL of media in 12-well plates and incubated with appropriate media, which included isotope tracers and/or chemical inhibitors and/or cytokines, as described. For all experiments involving small molecule agents, DMSO concentrations were <0.2%. After 2 hours, cell suspensions were transferred to 1.5 mL tubes and pelleted (30 seconds, 6000 rpm, room temperature). Media was removed by aspiration and metabolome extraction was performed by the addition of 75 µL of ice cold solvent (40:40:20 ACN:MeOH:H2O + 0.5%FA). After a 5-minute incubation on ice, acid was neutralized by the addition of NH4HCO3. After centrifugation (15 minutes, 16000 rpm, 4° C.), the resulting supernatant was transferred to a clean tube, frozen on dry ice and kept at -80° C. until LC-MS analysis.

**Q.** `N#Cc1cc(Nc2ncc3c(n2)CCCCC3=O)cs1` [Compound 2, 4-([5-oxo-6H,7H,8H,9H-cyclohepta[d]pyrimidin-2-yl]amino)thiophene-2-carbonitrile] was tested. Which “NADPH and 6-pg levels” value (10 µM, day 4-5 post-activation) did it give?
**A.** decreased

**Q.** What about the “2H transfer from glucose to NADPH” value (10 µM, day 4-5 post-activation, 1-2H-glucose) of the same compound?
**A.** completely blocked

**Q.** And the fatty acid synthesis (CD8+ T cells)?
**A.** nearly completely ablated

**Q.** What about the “time to effects on NADPH labeling and NADP+, NADPH and 6-pg levels” value (active CD8+ T cells, 50 µM) of the same compound?
**A.** ≤ 10 min

**Q.** What about the “time to restoration of NADPH, NADP+ and 6-pg levels after removing the inhibitor” value (active T cells) of the same compound?
**A.** ≤ 2 h
